Measured values reported in patent US6670446B1, “N1 modified glycopeptides” (Eli Lilly and Company, priority 1998, dated 2003).

How the values were obtained:
Type in all cases: cell-based
[1] = test system: Resistant Enterococcus faecium and faecalis; test: MIC, standard broth micro-dilution assay, Resistant; conditions: geometric mean of 4-6 isolates
Description: (§1) The antibacterial efficacy of the present compounds is illustrated by Table III. The minimal inhibitory concentrations (MICs) were determined using a standard broth micro-dilution assay.

[2] = test system: Sensitive Enterococcus faecium and faecalis; test: MIC, standard broth micro-dilution assay, Sensitive; conditions: geometric mean of 4-6 isolates
Description: as §1

[3] = test system: Staphylococcus aureus 446; test: MIC, standard broth micro-dilution assay, SA 446
Description: as §1

[4] = test system: Staphylococcus aureus 489; test: MIC, standard broth micro-dilution assay, SA 489
Description: as §1

[5] = test system: Staphylococcus aureus 447; test: MIC, standard broth micro-dilution assay, SA 447
Description: as §1

[6] = test system: Staphylococcus aureus X400; test: MIC, standard broth micro-dilution assay, SA X400
Description: as §1

[7] = test system: Staphylococcus aureus X778; test: MIC, standard broth micro-dilution assay, SA X778
Description: as §1

[8] = test system: Staphylococcus aureus 491; test: MIC, standard broth micro-dilution assay, SA 491
Description: as §1

[9] = test system: Staphylococcus aureus S13E
Description: as §1

[10] = test system: Staphylococcus aureus SA1199; test: MIC, standard broth micro-dilution assay, SA 1199
Description: as §1

[11] = test system: Staphylococcus aureus SA1199A; test: MIC, standard broth micro-dilution assay, SA 1199A
Description: as §1

[12] = test system: Staphylococcus haemolyticus 105; test: MIC, standard broth micro-dilution assay, SH 105
Description: as §1

[13] = test system: Staphylococcus haemolyticus 415; test: MIC, standard broth micro-dilution assay, SH 415
Description: as §1

[14] = test system: Staphylococcus epidermidis 270; test: MIC, standard broth micro-dilution assay, SE 270
Description: as §1

[15] = test system: Enterococcus faecium 180; test: MIC, standard broth micro-dilution assay, EF 180
Description: as §1

[16] = test system: Enterococcus faecium 180-1; test: MIC, standard broth micro-dilution assay, EF 180-1
Description: as §1

[17] = test system: Enterococcus faecalis 2041; test: MIC, standard broth micro-dilution assay, EF 2041
Description: as §1

[18] = test system: Enterococcus faecalis 276; test: MIC, standard broth micro-dilution assay, EF 276
Description: as §1

[19] = test system: Enterococcus gallinarum 245; test: MIC, standard broth micro-dilution assay, EG 245
Description: as §1

[20] = test system: Haemophilus influenzae RD; test: MIC, standard broth micro-dilution assay, HFRD
Description: as §1

[21] = test system: Escherichia coli EC14; test: MIC, standard broth micro-dilution assay, EC 14
Description: as §1

| SMILES | minimal inhibitory concentration (MIC), Resistant [1] | minimal inhibitory concentration (MIC), Sensitive [2] | minimal inhibitory concentration (MIC), SA 446 [3] | minimal inhibitory concentration (MIC), SA 489 [4] | minimal inhibitory concentration (MIC), SA 447 [5] | minimal inhibitory concentration (MIC), SA X400 [6] | minimal inhibitory concentration (MIC), SA X778 [7] | minimal inhibitory concentration (MIC), SA 491 [8] | minimal inhibitory concentration (MIC), SA S13E [9] | minimal inhibitory concentration (MIC), SA 1199 [10] | minimal inhibitory concentration (MIC), SA 1199A [11] | minimal inhibitory concentration (MIC), SH 105 [12] | minimal inhibitory concentration (MIC), SH 415 [13] | minimal inhibitory concentration (MIC), SE 270 [14] | minimal inhibitory concentration (MIC), EF 180 [15] | minimal inhibitory concentration (MIC), EF 180-1 [16] | minimal inhibitory concentration (MIC), EF 2041 [17] | minimal inhibitory concentration (MIC), EF 276 [18] | minimal inhibitory concentration (MIC), EG 245 [19] | minimal inhibitory concentration (MIC), HFRD [20] | also measured |
| --- | --- | --- | --- | --- | --- | --- | --- | --- | --- | --- | --- | --- | --- | --- | --- | --- | --- | --- | --- | --- | --- |
| CC1OC(OC2C(Oc3c4cc5cc3Oc3ccc(cc3Cl)[C@@H](O)[C@@H](NC(=O)[C@@H](Cc3ccc(Cl)cc3)NC(=O)OC(C)(C)C)C(=O)N[C@@H](CC(N)=O)C(=O)N[C@H]5C(=O)N[C@H]3C(=O)NC(C(=O)N[C@H](C(=O)O)c5cc(O)cc(O)c5-c5cc3ccc5O)[C@H](OC3CC(C)(N)C(O)C(C)O3)c3ccc(c(Cl)c3)O4)OC(CO)C(O)C2O)CC(C)(N)C1O (stereo partly drawn) [Example 20, N^1-[N-BOC-D-3-(p-chlorophenyl)alanine] derivative of desleucylA82846B] | >128 | 2 | 0.5 | ≦.06 | 0.25 | ≦.06 | 0.25 | ≦.06 | 0.125 | 0.125 | no growth | 8 | 16 | 0.125 | 16 | 0.25 | ≦.06 | 0.125 | 0.5 | 8 | minimal inhibitory concentration (MIC), EC 14 [21]: >64 |
| CC1OC(OC2c3ccc(c(Cl)c3)Oc3cc4cc(c3OC3OC(CO)C(O)C(O)C3OC3CC(C)(NCc5ccc(-c6ccccc6)cc5)C(O)C(C)O3)Oc3ccc(cc3Cl)C(O)C(NC(=O)C(Cc3ccc(Cl)cc3)NC(=O)OC(C)(C)C)C(=O)NC(CC(N)=O)C(=O)NC4C(=O)NC3C(=O)NC2C(=O)NC(C(=O)O)c2cc(O)cc(O)c2-c2cc3ccc2O)CC(C)(N)C1O [Example 21, N^1-[N-BOC-D-3-(p-chlorophenyl)alanine] derivative of N^DISACC-(p-phenylbenzyl)desleucylA82846B] | 11 | 1.5 | 0.5 | 0.25 | 0.5 | 0.5 | 0.5 | 0.5 | 0.5 | 0.5 | no growth | 2 | 2 | 0.5 | 1 | 0.5 | 0.5 | 1 | 1 | 2 | minimal inhibitory concentration (MIC), EC 14 [21]: >64 |
| CC1OC(OC2c3ccc(c(Cl)c3)Oc3cc4cc(c3OC3OC(CO)C(O)C(O)C3OC3CC(C)(NCc5ccc(-c6ccccc6)cc5)C(O)C(C)O3)Oc3ccc(cc3Cl)C(O)C(NC(=O)C(N)Cc3ccc(Cl)cc3)C(=O)NC(CC(N)=O)C(=O)NC4C(=O)NC3C(=O)NC2C(=O)NC(C(=O)O)c2cc(O)cc(O)c2-c2cc3ccc2O)CC(C)(N)C1O [Example 22, N^1-[D-3-(p-chlorophenyl)alanine] derivative of N^DISACC-(p-phenylbenzyl)desleucylA82846B] | 6.7 | 0.66 | 1 | 1 | 1 | 0.5 | 1 | 0.5 | 2 | 2 | 0.25 | 2 | 4 | 0.25 | 2 | ≦.06 | 1 | 1 | 0.25 | >64 | minimal inhibitory concentration (MIC), EC 14 [21]: >64 |
| CC1OC(OC2c3ccc(c(Cl)c3)Oc3cc4cc(c3OC3OC(CO)C(O)C(O)C3OC3CC(C)(NCc5ccc(-c6ccccc6)cc5)C(O)C(C)O3)Oc3ccc(cc3Cl)C(O)C(NC(=O)C(N)CCCCN)C(=O)NC(CC(N)=O)C(=O)NC4C(=O)NC3C(=O)NC2C(=O)NC(C(=O)O)c2cc(O)cc(O)c2-c2cc3ccc2O)CC(C)(N)C1O [Example 23, N^1-D-lysine derivative of N^DISACC-(p-phenylbenzyl)desleucylA82846B] | 2 | 0.29 | 1 | 0.5 | 1 | 2 | 2 | 0.5 | 2 | 0.5 | 0.25 | 1 | 1 | 0.125 | 0.5 | ≦.06 | 0.5 | 0.25 | 0.125 | >64 | minimal inhibitory concentration (MIC), EC 14 [21]: >64 |
| CC1OC(OC2C(Oc3c4cc5cc3Oc3ccc(cc3Cl)[C@@H](O)[C@@H](NC(=O)[C@H]3CCCN3C(=O)OC(C)(C)C)C(=O)N[C@@H](CC(N)=O)C(=O)N[C@H]5C(=O)N[C@H]3C(=O)NC(C(=O)N[C@H](C(=O)O)c5cc(O)cc(O)c5-c5cc3ccc5O)[C@H](OC3CC(C)(N)C(O)C(C)O3)c3ccc(c(Cl)c3)O4)OC(CO)C(O)C2O)CC(C)(N)C1O (stereo partly drawn) [Example 24, N^1-(N-BOC-D-proline) derivative of desleucylA82846B] | >128 | 4 | 4 | 2 | 4 | 2 | 1 | 1 | 2 | 2 | 1 | 16 | 32 | 2 | >64 | 1 | 1 | 1 | 8 | >64 | minimal inhibitory concentration (MIC), EC 14 [21]: >64 |
| CC1OC(OC2c3ccc(c(Cl)c3)Oc3cc4cc(c3OC3OC(CO)C(O)C(O)C3OC3CC(C)(NCc5ccc(-c6ccccc6)cc5)C(O)C(C)O3)Oc3ccc(cc3Cl)C(O)C(NC(=O)C(Cc3c[nH]c5ccccc35)NC(=O)OC(C)(C)C)C(=O)NC(CC(N)=O)C(=O)NC4C(=O)NC3C(=O)NC2C(=O)NC(C(=O)O)c2cc(O)cc(O)c2-c2cc3ccc2O)CC(C)(N)C1O [Example 25, N^1-(N-BOC-D-tryptophan) derivative of N^DISACC-(p-phenylbenzyl)desleucylA82846B] | 27 | 1.3 | 4 | 1 | 2 | 2 | 2 | 2 | 2 | 1 | 0.5 | 2 | 4 | 2 | 8 | ≦.06 | 1 | 2 | 2 | >64 | minimal inhibitory concentration (MIC), EC 14 [21]: >64 |
